ChEMBL document CHEMBL1201862, “PubChem BioAssay data set” (2004)
The source made the active and inactive calls.

Legend:
Assay type in all cases: functional
[1] = target: Protein kinase C gamma type (Homo sapiens, UniProt P05129)
[2] = target: 3-phosphoinositide-dependent protein kinase 1 (Homo sapiens, UniProt O15530);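 also: value comes from the Navigating the Kinome panel, PDPK1 member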
[3] = target: Interleukin-1 receptor-associated kinase 4 (Homo sapiens, UniProt Q9NWZ3)
[4] = target: Serine/threonine-protein kinase pim-1 (Homo sapiens, UniProt P11309)
Ephrin type-A receptor 2 = Ephrin type-A receptor 2 (Homo sapiens, UniProt P29317);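 also: EPHA2 tested as one member of a kinome-wide kinase panel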
[5] = target: Macrophage colony-stimulating factor 1 receptor (Homo sapiens, UniProt P07333);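 also: value comes from the Navigating the Kinome screening panel, CSF1R member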
[6] = target: Mitogen-activated protein kinase kinase kinase kinase 4 (Homo sapiens, UniProt O95819)
[7] = target: Tyrosine-protein kinase ABL1 (Homo sapiens, UniProt P00519)
[8] = target: Mitogen-activated protein kinase kinase kinase kinase 5 (Homo sapiens, UniProt Q9Y4K4);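 also: measured as one member of a kinome-spanning kinase panel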
[9] = target: Cyclin-dependent kinase 9 (Homo sapiens, UniProt P50750);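 also: value from the CDK9 entry of a kinome-spanning kinase panel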
[10] = target: Dual specificity tyrosine-phosphorylation-regulated kinase 4 (Homo sapiens, UniProt Q9NR20)
[11] = target: RAC-alpha serine/threonine-protein kinase (Homo sapiens, UniProt P31749);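 also: AKT1 affinity measured as one member of a kinome-wide kinase profiling panel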
[12] = target: Mitogen-activated protein kinase 13 (Homo sapiens, UniProt O15264)
[13] = target: Proto-oncogene tyrosine-protein kinase ROS (Homo sapiens, UniProt P08922);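 also: ROS1 tested as one member of a kinome-wide kinase panel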
[14] = target: Serine/threonine-protein kinase Chk1 (Homo sapiens, UniProt O14757);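 also: measured as one member of a kinome-wide kinase profiling panel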
[15] = target: cAMP-dependent protein kinase catalytic subunit alpha (Homo sapiens, UniProt P17612)
[16] = target: Serine/threonine-protein kinase 3 (Homo sapiens, UniProt Q13188);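 also: measured as one member of a kinome-wide kinase panel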
[17] = target: Receptor tyrosine-protein kinase erbB-2 (Homo sapiens, UniProt P04626); experiment: Navigating the Kinome. Panel member name: ERBB2
[18] = target: Casein kinase I isoform gamma-1 (Homo sapiens, UniProt Q9HCP0);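 also: measured as the CSNK1G1 member of a kinome profiling panel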
[19] = target: Mitogen-activated protein kinase 8 (Homo sapiens, UniProt P45983);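 also: value comes from one member of a kinome-wide kinase profiling panel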
[20] = target: Casein kinase II subunit alpha (Homo sapiens, UniProt P68400)
[21] = target: Serine/threonine-protein kinase 17A (Homo sapiens, UniProt Q9UEE5)
[22] = target: Ribosomal protein S6 kinase beta-1 (Homo sapiens, UniProt P23443);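 also: measured as one member of a kinome-wide profiling panel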
[23] = target: Interleukin-1 receptor-associated kinase 1 (Homo sapiens, UniProt P51617);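 also: IRAK1 tested as one member of a kinome panel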
[24] = target: MAP kinase-activated protein kinase 5 (Homo sapiens, UniProt Q8IW41);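 also: measured as one member of a kinome panel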
[25] = target: High affinity nerve growth factor receptor (Homo sapiens, UniProt P04629);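 also: NTRK1 tested as one member of a kinome-wide profiling panel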
[26] = target: Rho-associated protein kinase 1 (Homo sapiens, UniProt Q13464);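 also: measured within a broad kinome-wide panel profiling many kinases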
[27] = target: Protein-tyrosine kinase 6 (Homo sapiens, UniProt Q13882)
[28] = target: Fibroblast growth factor receptor 1 (Homo sapiens, UniProt P11362)
[29] = target: Tyrosine-protein kinase Fer (Homo sapiens, UniProt P16591);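 also: FER tested as one member of a kinome panel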
[30] = target: Calcium/calmodulin-dependent protein kinase type II subunit gamma (Homo sapiens, UniProt Q13555)
[31] = target: Vascular endothelial growth factor receptor 1 (Homo sapiens, UniProt P17948);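 also: measured within a kinome-wide profiling panel, FLT1 as the panel member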
[32] = target: MAP/microtubule affinity-regulating kinase 3 (Homo sapiens, UniProt P27448);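 also: MARK3 affinity measured as one member of a kinome panel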
[33] = target: Tyrosine-protein kinase JAK2 (Homo sapiens, UniProt O60674);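 also: JAK2 tested as one member of a kinase panel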
[34] = target: Dual specificity tyrosine-phosphorylation-regulated kinase 1A (Homo sapiens, UniProt Q13627);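 also: measured against DYRK1A as one member of a broad kinome profiling panel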
[35] = target: Cell division cycle 7-related protein kinase (Homo sapiens, UniProt O00311);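 also: value obtained from a kinome-wide kinase panel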
[36] = target: Dual specificity tyrosine-phosphorylation-regulated kinase 3 (Homo sapiens, UniProt O43781);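 also: measured as one member of a broad kinase panel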
[37] = target: Serine/threonine-protein kinase PAK 1 (Homo sapiens, UniProt Q13153)
[38] = target: Serine/threonine-protein kinase MRCK alpha (Homo sapiens, UniProt Q5VT25)
[39] = target: Maternal embryonic leucine zipper kinase (Homo sapiens, UniProt Q14680)
[40] = target: Mitogen-activated protein kinase kinase kinase 20 (Homo sapiens, UniProt Q9NYL2)
[41] = target: Tyrosine-protein kinase JAK3 (Homo sapiens, UniProt P52333)
[42] = target: Calcium/calmodulin-dependent protein kinase type 1 (Homo sapiens, UniProt Q14012)
[43] = target: Tyrosine-protein kinase Lck (Homo sapiens, UniProt P06239);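 also: lck was assayed as one member of a kinase panel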
[44] = target: Proto-oncogene tyrosine-protein kinase receptor Ret (Homo sapiens, UniProt P07949);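 also: measured within a kinome-wide profiling panel, RET as the panel member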
[45] = target: Dual specificity protein kinase CLK2 (Homo sapiens, UniProt P49760)
Aurora kinase B = Aurora kinase B (Homo sapiens, UniProt Q96GD4)

Sequence of Serine/threonine-protein kinase 17A (Q9UEE5 whole entry): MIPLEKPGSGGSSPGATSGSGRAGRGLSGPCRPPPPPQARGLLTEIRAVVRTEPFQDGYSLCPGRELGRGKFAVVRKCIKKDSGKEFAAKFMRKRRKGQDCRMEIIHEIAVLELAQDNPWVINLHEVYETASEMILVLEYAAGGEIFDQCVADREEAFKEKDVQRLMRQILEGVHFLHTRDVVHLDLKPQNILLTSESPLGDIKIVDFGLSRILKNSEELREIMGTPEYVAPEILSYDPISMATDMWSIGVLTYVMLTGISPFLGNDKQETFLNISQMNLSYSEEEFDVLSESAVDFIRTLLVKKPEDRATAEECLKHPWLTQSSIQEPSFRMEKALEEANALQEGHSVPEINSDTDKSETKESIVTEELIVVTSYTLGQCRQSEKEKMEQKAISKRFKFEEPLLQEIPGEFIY
Sequence of Mitogen-activated protein kinase kinase kinase 20 (Q9NYL2 whole entry): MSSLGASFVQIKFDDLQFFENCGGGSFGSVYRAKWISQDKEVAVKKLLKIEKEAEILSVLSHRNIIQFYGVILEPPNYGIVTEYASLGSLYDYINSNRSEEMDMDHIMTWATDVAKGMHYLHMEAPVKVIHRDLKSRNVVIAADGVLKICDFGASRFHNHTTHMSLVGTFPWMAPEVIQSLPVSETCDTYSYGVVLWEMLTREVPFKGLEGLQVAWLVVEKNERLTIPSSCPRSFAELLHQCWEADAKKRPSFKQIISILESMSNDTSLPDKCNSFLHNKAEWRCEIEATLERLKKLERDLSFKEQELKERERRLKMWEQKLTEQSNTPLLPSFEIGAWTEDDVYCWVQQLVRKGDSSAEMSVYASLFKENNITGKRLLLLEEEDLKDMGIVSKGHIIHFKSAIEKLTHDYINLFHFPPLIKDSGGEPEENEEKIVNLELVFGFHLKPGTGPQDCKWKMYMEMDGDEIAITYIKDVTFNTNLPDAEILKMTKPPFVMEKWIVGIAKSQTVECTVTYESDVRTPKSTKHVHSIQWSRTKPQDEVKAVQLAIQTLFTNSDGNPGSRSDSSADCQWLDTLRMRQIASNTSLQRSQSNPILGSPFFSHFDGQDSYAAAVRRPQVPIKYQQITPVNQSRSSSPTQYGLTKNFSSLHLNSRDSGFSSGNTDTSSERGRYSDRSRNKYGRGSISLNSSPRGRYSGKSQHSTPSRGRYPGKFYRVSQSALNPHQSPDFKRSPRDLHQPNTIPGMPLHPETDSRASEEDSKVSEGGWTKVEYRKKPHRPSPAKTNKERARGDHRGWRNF
Sequence of Rho-associated protein kinase 1 (Q13464 whole entry): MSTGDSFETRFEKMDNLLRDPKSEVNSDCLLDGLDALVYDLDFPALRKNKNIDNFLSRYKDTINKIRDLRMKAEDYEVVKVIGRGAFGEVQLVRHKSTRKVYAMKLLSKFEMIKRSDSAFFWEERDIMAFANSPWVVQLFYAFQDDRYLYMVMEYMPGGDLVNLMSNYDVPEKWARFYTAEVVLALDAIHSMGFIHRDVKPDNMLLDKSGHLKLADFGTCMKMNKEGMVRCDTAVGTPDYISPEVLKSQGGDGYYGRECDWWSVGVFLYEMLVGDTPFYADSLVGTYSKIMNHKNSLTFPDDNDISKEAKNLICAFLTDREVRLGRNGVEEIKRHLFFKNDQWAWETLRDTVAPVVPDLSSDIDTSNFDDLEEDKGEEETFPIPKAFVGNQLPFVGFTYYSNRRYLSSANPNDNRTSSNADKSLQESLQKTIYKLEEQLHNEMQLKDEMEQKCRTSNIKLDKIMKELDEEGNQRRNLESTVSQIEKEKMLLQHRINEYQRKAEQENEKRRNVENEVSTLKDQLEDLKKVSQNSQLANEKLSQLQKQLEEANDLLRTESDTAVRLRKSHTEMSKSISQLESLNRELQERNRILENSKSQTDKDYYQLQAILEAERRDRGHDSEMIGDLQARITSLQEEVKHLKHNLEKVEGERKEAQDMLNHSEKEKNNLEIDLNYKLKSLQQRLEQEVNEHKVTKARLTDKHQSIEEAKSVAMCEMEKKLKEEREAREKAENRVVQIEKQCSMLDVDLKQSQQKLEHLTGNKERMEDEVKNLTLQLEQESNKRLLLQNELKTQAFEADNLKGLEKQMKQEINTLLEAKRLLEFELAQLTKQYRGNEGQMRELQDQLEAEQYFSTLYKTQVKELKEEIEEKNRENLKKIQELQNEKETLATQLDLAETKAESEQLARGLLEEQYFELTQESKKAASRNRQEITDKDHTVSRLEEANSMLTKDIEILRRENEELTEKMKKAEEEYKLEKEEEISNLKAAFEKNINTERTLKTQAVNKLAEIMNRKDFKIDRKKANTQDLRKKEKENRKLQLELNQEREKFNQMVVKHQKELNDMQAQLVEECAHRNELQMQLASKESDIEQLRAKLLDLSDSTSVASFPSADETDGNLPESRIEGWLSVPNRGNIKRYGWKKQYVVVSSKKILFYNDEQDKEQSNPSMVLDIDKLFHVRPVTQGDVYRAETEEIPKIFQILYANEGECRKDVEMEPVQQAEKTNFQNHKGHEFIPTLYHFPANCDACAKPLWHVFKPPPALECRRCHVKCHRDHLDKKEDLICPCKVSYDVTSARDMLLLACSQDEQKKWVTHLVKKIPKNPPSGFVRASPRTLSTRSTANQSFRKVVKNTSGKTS
Sequence of Serine/threonine-protein kinase Chk1 (O14757 whole entry): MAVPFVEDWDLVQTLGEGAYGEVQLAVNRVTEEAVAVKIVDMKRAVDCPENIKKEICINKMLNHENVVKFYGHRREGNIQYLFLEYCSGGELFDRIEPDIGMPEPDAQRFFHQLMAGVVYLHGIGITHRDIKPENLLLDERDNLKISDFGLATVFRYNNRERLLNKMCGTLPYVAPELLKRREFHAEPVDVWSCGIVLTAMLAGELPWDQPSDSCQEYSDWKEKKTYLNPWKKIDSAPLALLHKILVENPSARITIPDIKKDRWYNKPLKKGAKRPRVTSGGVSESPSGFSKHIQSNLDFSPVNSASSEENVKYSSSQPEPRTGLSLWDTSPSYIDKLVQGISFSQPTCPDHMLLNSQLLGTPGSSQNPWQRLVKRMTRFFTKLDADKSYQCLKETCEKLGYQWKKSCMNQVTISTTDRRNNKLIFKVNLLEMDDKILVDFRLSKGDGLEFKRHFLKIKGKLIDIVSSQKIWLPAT
Sequence of Tyrosine-protein kinase ABL1 (P00519 whole entry): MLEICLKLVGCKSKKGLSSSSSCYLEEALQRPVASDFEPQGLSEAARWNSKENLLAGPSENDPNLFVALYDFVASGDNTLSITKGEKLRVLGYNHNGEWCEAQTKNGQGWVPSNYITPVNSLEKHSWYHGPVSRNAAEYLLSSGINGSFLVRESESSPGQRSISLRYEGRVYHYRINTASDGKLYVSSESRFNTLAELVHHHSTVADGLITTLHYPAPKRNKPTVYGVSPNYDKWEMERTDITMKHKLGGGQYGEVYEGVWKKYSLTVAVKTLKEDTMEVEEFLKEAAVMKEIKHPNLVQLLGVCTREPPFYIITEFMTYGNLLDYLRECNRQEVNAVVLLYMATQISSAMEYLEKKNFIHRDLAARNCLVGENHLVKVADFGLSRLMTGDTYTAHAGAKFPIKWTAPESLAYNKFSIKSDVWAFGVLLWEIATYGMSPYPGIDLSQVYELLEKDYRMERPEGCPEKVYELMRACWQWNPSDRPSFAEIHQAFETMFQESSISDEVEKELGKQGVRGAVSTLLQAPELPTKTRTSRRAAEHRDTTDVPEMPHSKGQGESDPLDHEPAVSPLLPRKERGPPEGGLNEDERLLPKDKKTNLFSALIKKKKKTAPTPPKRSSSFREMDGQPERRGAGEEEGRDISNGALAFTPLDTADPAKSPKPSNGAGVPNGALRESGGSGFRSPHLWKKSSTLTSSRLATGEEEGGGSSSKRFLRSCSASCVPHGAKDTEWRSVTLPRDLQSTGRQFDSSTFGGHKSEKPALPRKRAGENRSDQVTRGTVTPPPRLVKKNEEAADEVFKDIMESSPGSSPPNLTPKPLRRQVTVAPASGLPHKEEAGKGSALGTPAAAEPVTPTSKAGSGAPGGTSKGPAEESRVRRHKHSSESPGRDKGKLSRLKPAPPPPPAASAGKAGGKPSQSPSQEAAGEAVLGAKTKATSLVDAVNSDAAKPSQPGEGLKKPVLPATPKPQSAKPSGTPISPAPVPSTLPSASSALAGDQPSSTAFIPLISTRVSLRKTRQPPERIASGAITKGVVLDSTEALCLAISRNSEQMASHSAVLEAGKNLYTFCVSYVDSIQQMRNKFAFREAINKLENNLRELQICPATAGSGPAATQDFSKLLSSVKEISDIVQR
Sequence of Calcium/calmodulin-dependent protein kinase type 1 (Q14012 whole entry): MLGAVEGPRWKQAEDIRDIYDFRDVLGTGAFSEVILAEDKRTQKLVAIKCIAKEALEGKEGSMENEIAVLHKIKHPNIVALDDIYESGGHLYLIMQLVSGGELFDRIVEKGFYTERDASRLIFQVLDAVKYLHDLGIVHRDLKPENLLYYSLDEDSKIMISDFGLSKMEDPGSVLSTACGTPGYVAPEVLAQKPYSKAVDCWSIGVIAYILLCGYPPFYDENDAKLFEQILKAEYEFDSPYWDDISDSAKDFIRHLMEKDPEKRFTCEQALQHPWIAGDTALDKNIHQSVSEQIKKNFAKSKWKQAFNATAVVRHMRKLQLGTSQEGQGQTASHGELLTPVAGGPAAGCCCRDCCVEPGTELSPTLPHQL
Sequence of Casein kinase II subunit alpha (P68400 whole entry): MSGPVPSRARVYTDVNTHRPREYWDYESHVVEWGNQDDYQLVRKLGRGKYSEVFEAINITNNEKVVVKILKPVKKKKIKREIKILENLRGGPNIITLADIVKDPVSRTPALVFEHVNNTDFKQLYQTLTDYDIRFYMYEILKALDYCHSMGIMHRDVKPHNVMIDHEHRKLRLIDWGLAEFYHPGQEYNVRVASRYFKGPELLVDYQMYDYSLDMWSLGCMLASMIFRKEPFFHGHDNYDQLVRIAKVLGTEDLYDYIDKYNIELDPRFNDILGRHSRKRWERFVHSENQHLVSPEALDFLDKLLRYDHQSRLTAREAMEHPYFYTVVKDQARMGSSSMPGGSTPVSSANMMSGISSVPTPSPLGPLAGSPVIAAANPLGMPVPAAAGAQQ

SMILES: NC1CCCCC1Nc1nccc(-c2c[nH]c3ncccc23)n1 (configuration not stated)
- Ki [1]: 251 nM (active)
- Ki [2]: 316 nM (active)
- Ki [3]: 5.01 nM (active)
- Ki [4]: 501 nM (active)
- Ki (Ephrin type-A receptor 2): > 3160 nM (inactive)
- Ki [5]: > 2510 nM (inactive)
- Ki [6]: 31.6 nM (active)
- Ki [7]: > 631 nM (inactive)
- Ki [8]: 251 nM (active)
- Ki [9]: 31.6 nM (active)
- Ki [10]: 158 nM (active)
- Ki [11]: 631 nM (active)
- Ki [12]: 398 nM (active)
- Ki [13]: > 2000 nM (inactive)
- Ki [14]: 1260 nM (active)
- Ki [15]: 25.1 nM (active)
- Ki [16]: 251 nM (active)
- Ki [17]: > 1580 nM (inactive)
- Ki [18]: 316 nM (active)
- Ki [19]: > 3160 nM (inactive)
- Ki [20]: > 6310 nM (inactive)
- Ki [21]: 794 nM (active)
- Ki [22]: 501 nM (active)
- Ki [23]: 39.8 nM (active)
- Ki [24]: > 1580 nM (inactive)
- Ki [25]: 631 nM (active)
- Ki [26]: 5.01 nM (active)
- Ki [27]: > 2510 nM (inactive)
- Ki [28]: > 5010 nM (inactive)
- Ki [29]: 1580 nM (active)
- Ki [30]: 79.4 nM (active)
- Ki [31]: > 398 nM (inactive)
- Ki [32]: 158 nM (active)
- Ki [33]: 794 nM (active)
- Ki [34]: 7.94 nM (active)
- Ki [35]: 10 nM (active)
- Ki [36]: 126 nM (active)
- Ki [37]: 3160 nM (active)
- Ki [38]: 63.1 nM (active)
- Ki [39]: 100 nM (active)
- Ki [40]: > 7940 nM (inactive)
- Ki [41]: 1260 nM (active)
- Ki [42]: > 2000 nM (inactive)
- Ki [43]: > 2510 nM (inactive)
- Ki [44]: 251 nM (active)
- Ki [45]: 39.8 nM (active)
- Ki (Aurora kinase B): 1260 nM (active)
